The values that follow come from patent US11166461B2, “Methods of controlling or preventing infestation of soybean plants by phytopathogenic microorganisms” (SYNGENTA PARTICIPATIONS AG, priority 2017, dated 2021).

The test system of assay [1] is Fusarium virguliforme. As to the kind of experiment: Seed treatments on soybean cv. Toliman infected with Fusarium virguliforme (growth chamber pot test). The class given is in vivo. The settings on record: 29 DAS; for % Disease severity: SDS index normalized to 100 for untreated infected control; for % Infected plants: soybean cv. Toliman. As to the method: Effect of Different Seed Treatments on Soybean Cv. Toliman Infected with Fusarium virguliforme:
Fusarium virguliforme/Soybean
5×5 soybean seeds cv. Toliman were sown into plastic pots. A mixture of 50% vol. sand and 50% vol. sterilized field soil was used as substrate. A layer of F. virguliforme infected millet seeds was placed below the soybean seeds. The test was kept in a growth chamber at 25° C. with 14 h artificial light; plants were irrigated up to field capacity. For the last five cultivation days, plants were kept at 18° C. The number of infected plants was counted 29 Days After Sowing (DAS).
Disease assessment was done visually 29 DAS, by classifying the plants according to a disease severity scale for SDS modified from Scandiani et al. (2011)* and J. Bond using classes from 0 to 4. The number of plants in each class were assessed. This allows calculating an “SDS Index” by multiplying the number of plants in each class with the disease severity (0, 1, 2, 3 or 4) and adding the products for all classes. SDS Index=n1×0+n2×1+n3×2+n4×3+n5×4. The SDS index is normalized to give an index of 100 for the untreated, infected control (UTCINF) and by calculating the normalized index for all treatments relative to the UTCINF. Shoot dry weight and shoot size was determined 29 DAS. • *Scandiani M., Ruberti D., Giorda L., Pioli R., Luque A., Bottai B., Ivancovich J., Aoki T., & O'Donnell K.: Comparison of inoculation methods for characterizing relative aggressiveness of two soybean sudden-death syndrome pathogens, Fusarium virguliforme and F. tucumaniae. Tropical Plant Pathology, vol. 36, 3, 133-140, 2011 Effect of Different Seed Treatments in the Field Against Sudden Death Syndrome (SDS) Caused by Fusarium virguliforme

Assay [2] concerns Fusarium virguliforme. In words: Seed treatments in the field against Sudden Death Syndrome (SDS) caused by Fusarium virguliforme, soybean field trial Clinton, Ill. The class given is in vivo. The settings on record: seed treatment 0.15 mg ai/seed plus base treatment; for % efficacy based on disease incidence / % disease incidence: 107 days after planting; for % efficacy based on disease incidence: 100 − (100/(untreated/treated)); for % disease incidence: infected plants per plot; for Yield (bushel/acre) / % yield increase: 150 days after planting; for Yield (bushel/acre): full plot harvest; for % yield increase: versus untreated. Here is the method: Disease assessment was done visually 29 DAS, by classifying the plants according to a disease severity scale for SDS modified from […] et al. (2011)* and J. Bond using classes from 0 to 4. The number of plants in each class were assessed. […] SDS Index=n1×0+n2×1+n3×2+n4×3+n5×4. The SDS index is normalized to give an index of 100 for the untreated, infected control ([…]) and by calculating the normalized index for all treatments relative to the […]. Shoot dry weight and shoot size was determined 29 […]., Ruberti D., Giorda L., Pioli R., Luque […]., Aoki T., & O'Donnell K.: Comparison of inoculation methods for characterizing relative aggressiveness of two soybean sudden-death syndrome pathogens, Fusarium virguliforme and F. tucumaniae. Tropical Plant Pathology, vol. 36, 3, 133-140, 2011 Effect of Different Seed Treatments in the Field Against Sudden Death Syndrome (SDS) Caused by Fusarium virguliforme A soybean field trial was carried out in Clinton, Ill., USA. This site had historically SDS occurrence reported. […] The disease occurred end of August and an assessment on disease incidence (counting of infected plants) was done Sep. 15, 2017. The yield of the grain data has been taken at the end of the season. [table] [table] [table]

With `O=C(NC1CCC1c1ccc(F)cc1Cl)c1ncccc1C(F)(F)F` (stereo not shown) [Compound 4], in assay [1] (seed treatment 10 g ai/100 kg), the “Shoot dry weight” value came to 3.89 g, the “Shoot length in mm” value is on record as 541 mm, the “% Disease severity” value amounted to 5% and the “% Infected plants” value is recorded as 8%. In assay [1] (seed treatment 20 g ai/100 kg), the “Shoot dry weight” value was 3.77 g, the “Shoot length in mm” value worked out at 526 mm, the “% Disease severity” value is 5% and the “% Infected plants” value was determined as 8%.
As to `O=C(NC1CCC1c1ccc(F)cc1Cl)c1cccnc1C(F)(F)F` (stereo not shown) [Compound 7], in assay [1] (seed treatment 10 g ai/100 kg), the “Shoot dry weight” value stood at 4.09 g, the “Shoot length in mm” value is reported as 565 mm, the “% Disease severity” value amounted to 1% and the “% Infected plants” value is 4%. For the same compound, in assay [1] (seed treatment 20 g ai/100 kg), the “Shoot dry weight” value is 4.01 g, the “Shoot length in mm” value is recorded as 530 mm, the “% Disease severity” value was determined as 0% and the “% Infected plants” value stood at 0%.
Regarding `O=C(NCCc1ncc(C(F)(F)F)cc1Cl)c1ccccc1C(F)(F)F` [Fluopyram, reference compound], in assay [2], the “yield increase (in words)” value is “did not increase the yield”, the “% efficacy based on disease incidence” value worked out at 58.33%, the “% disease incidence” value came out at 25.00 B % and the “Yield (bushel/acre)” value amounted to 68.38 A bushel/acre. In addition, the “% yield increase” value in assay [2] is −3.74%.
Take `O=C(NC1CCC1c1ccc(Cl)cc1Cl)c1cccnc1C(F)(F)F` (stereo not shown) [Compound 1]: in assay [1] (seed treatment 10 g ai/100 kg), the “Shoot dry weight” value is 3.57 g, the “Shoot length in mm” value came to 505 mm, the “% Disease severity” value turned out to be 17% and the “% Infected plants” value is 28%. Besides, in assay [1] (seed treatment 20 g ai/100 kg), the “Shoot dry weight” value was determined as 4.16 g, the “Shoot length in mm” value was 587 mm, the “% Disease severity” value worked out at 0% and the “% Infected plants” value amounted to 0%. Moreover, in assay [2], the “yield increase over the untreated check” value is on record as 8.11 bushels per acre, the “% efficacy based on disease incidence” value is on record as 79.72%, the “% disease incidence” value worked out at 12.17 B % and the “Yield (bushel/acre)” value worked out at 79.15 A bushel/acre. The “% yield increase” value in assay [2] is 11.42%.
